Results taken from PubChem BioAssay (NCI).
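Five concentrations, 48 hours, 96-well plates. At the GI50, growth is halved. The concentration for full growth arrest is given as TGI.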

Tests used:
Assay in all cases: DTP human tumour cell line panel, 48 h
786-0 renal = test system: 786-0 renal
A498 renal = test system: A498 renal
A549 NSCLC = test system: A549 NSCLC
ACHN renal = test system: ACHN renal
BT-549 breast = test system: BT-549 breast
CAKI-1 renal = test system: CAKI-1 renal
CCRF-CEM leukemia = test system: CCRF-CEM leukemia
COLO 205 colon = test system: COLO 205 colon
DU-145 prostate = test system: DU-145 prostate
EKVX NSCLC = test system: EKVX NSCLC
HCC-2998 colon = test system: HCC-2998 colon
HCT-116 colon = test system: HCT-116 colon
HCT-15 colon = test system: HCT-15 colon
HL-60(TB) leukemia = test system: HL-60(TB) leukemia
HOP-62 NSCLC = test system: HOP-62 NSCLC
HOP-92 NSCLC = test system: HOP-92 NSCLC
HS 578T breast = test system: HS 578T breast
HT29 colon = test system: HT29 colon
IGROV1 ovarian = test system: IGROV1 ovarian
K-562 leukemia = test system: K-562 leukemia
KM12 colon = test system: KM12 colon
LOX IMVI melanoma = test system: LOX IMVI melanoma
M14 melanoma = test system: M14 melanoma
MALME-3M melanoma = test system: MALME-3M melanoma
MCF7 breast = test system: MCF7 breast
MDA-MB-231 breast = test system: MDA-MB-231 breast
MDA-MB-435 = test system: MDA-MB-435
MOLT-4 leukemia = test system: MOLT-4 leukemia
NCI-H226 lung = test system: NCI-H226 lung
NCI-H23 lung = test system: NCI-H23 lung
NCI-H460 lung = test system: NCI-H460 lung
NCI-H522 lung = test system: NCI-H522 lung
NCI/ADR-RES ovarian = test system: NCI/ADR-RES ovarian
OVCAR-3 ovarian = test system: OVCAR-3 ovarian
OVCAR-4 ovarian = test system: OVCAR-4 ovarian
OVCAR-5 ovarian = test system: OVCAR-5 ovarian
OVCAR-8 ovarian = test system: OVCAR-8 ovarian
PC-3 prostate = test system: PC-3 prostate
RPMI-8226 leukemia = test system: RPMI-8226 leukemia
RXF 393 renal = test system: RXF 393 renal
SF-268 CNS = test system: SF-268 CNS
SF-295 CNS = test system: SF-295 CNS
SF-539 CNS = test system: SF-539 CNS
SK-MEL-2 melanoma = test system: SK-MEL-2 melanoma
SK-MEL-28 melanoma = test system: SK-MEL-28 melanoma
SK-MEL-5 melanoma = test system: SK-MEL-5 melanoma
SK-OV-3 ovarian = test system: SK-OV-3 ovarian
SN12C renal = test system: SN12C renal
SNB-19 CNS = test system: SNB-19 CNS
SNB-75 CNS = test system: SNB-75 CNS
SR leukemia = test system: SR leukemia
SW-620 colon = test system: SW-620 colon
T-47D breast = test system: T-47D breast
TK-10 renal = test system: TK-10 renal
U251 CNS = test system: U251 CNS
UACC-257 melanoma = test system: UACC-257 melanoma
UACC-62 melanoma = test system: UACC-62 melanoma
UO-31 renal = test system: UO-31 renal

Question: Which results are given for `CN1CCC(n2cc(Nc3ncc4c(=O)n(-c5c(Cl)cccc5Cl)cc(Br)c4n3)cn2)CC1`?
Answer: GI50 (786-0 renal): 241 nM; TGI (786-0 renal): 8320 nM; GI50 (A498 renal): 62.8 nM; TGI (A498 renal): 3190 nM; GI50 (A549 NSCLC): 2320 nM; TGI (A549 NSCLC): 11500 nM; GI50 (ACHN renal): 40.2 nM; TGI (ACHN renal): 11900 nM; GI50 (BT-549 breast): 399 nM; TGI (BT-549 breast): 4640 nM; GI50 (CAKI-1 renal): 98.4 nM; TGI (CAKI-1 renal): 11500 nM; GI50 (CCRF-CEM leukemia): 75 nM; TGI (CCRF-CEM leukemia): 6360 nM; GI50 (COLO 205 colon): 1140 nM; TGI (COLO 205 colon): 8530 nM; GI50 (DU-145 prostate): 1300 nM; TGI (DU-145 prostate): 14800 nM; GI50 (EKVX NSCLC): 2770 nM; TGI (EKVX NSCLC): 18000 nM; GI50 (HCC-2998 colon): 740 nM; TGI (HCC-2998 colon): 12500 nM; GI50 (HCT-116 colon): 585 nM; TGI (HCT-116 colon): 10400 nM; GI50 (HCT-15 colon): 368 nM; TGI (HCT-15 colon): 11300 nM; GI50 (HL-60(TB) leukemia): 160 nM; TGI (HL-60(TB) leukemia): 853 nM; GI50 (HOP-62 NSCLC): 846 nM; TGI (HOP-62 NSCLC): 13300 nM; GI50 (HOP-92 NSCLC): 102 nM; TGI (HOP-92 NSCLC): 3730 nM; GI50 (HS 578T breast): 538 nM; TGI (HS 578T breast): 16100 nM; GI50 (HT29 colon): 142 nM; TGI (HT29 colon): 2620 nM; GI50 (IGROV1 ovarian): 110 nM; TGI (IGROV1 ovarian): 7320 nM; GI50 (K-562 leukemia): 178 nM; TGI (K-562 leukemia): 12500 nM; GI50 (KM12 colon): 551 nM; TGI (KM12 colon): 16300 nM; GI50 (LOX IMVI melanoma): 480 nM; TGI (LOX IMVI melanoma): 2920 nM; GI50 (M14 melanoma): 65 nM; TGI (M14 melanoma): 13400 nM; GI50 (MALME-3M melanoma): 796 nM; TGI (MALME-3M melanoma): 18100 nM; GI50 (MCF7 breast): 181 nM; TGI (MCF7 breast): 7250 nM; GI50 (MDA-MB-231 breast): 821 nM; TGI (MDA-MB-231 breast): 13400 nM; GI50 (MDA-MB-435): 148 nM; TGI (MDA-MB-435): 10300 nM; GI50 (MOLT-4 leukemia): 64.6 nM; TGI (MOLT-4 leukemia): 4260 nM; GI50 (NCI-H226 lung): 1290 nM; TGI (NCI-H226 lung): 11400 nM; GI50 (NCI-H23 lung): 65.1 nM; TGI (NCI-H23 lung): 594 nM; GI50 (NCI-H460 lung): 1350 nM; TGI (NCI-H460 lung): 8910 nM; GI50 (NCI-H522 lung): 424 nM; TGI (NCI-H522 lung): 2650 nM; GI50 (NCI/ADR-RES ovarian): 288 nM; TGI (NCI/ADR-RES ovarian): 15300 nM; GI50 (OVCAR-3 ovarian): 223 nM; TGI (OVCAR-3 ovarian): 3470 nM; GI50 (OVCAR-4 ovarian): 627 nM; TGI (OVCAR-4 ovarian): 11300 nM; GI50 (OVCAR-5 ovarian): 1360 nM; TGI (OVCAR-5 ovarian): 12300 nM; GI50 (OVCAR-8 ovarian): 268 nM; TGI (OVCAR-8 ovarian): 5020 nM; GI50 (PC-3 prostate): 1720 nM; TGI (PC-3 prostate): 16400 nM; GI50 (RPMI-8226 leukemia): 1150 nM; TGI (RPMI-8226 leukemia): 10300 nM; GI50 (RXF 393 renal): 80.8 nM; TGI (RXF 393 renal): 585 nM; GI50 (SF-268 CNS): 2160 nM; TGI (SF-268 CNS): 16500 nM; GI50 (SF-295 CNS): 939 nM; TGI (SF-295 CNS): 15500 nM; GI50 (SF-539 CNS): 33.7 nM; TGI (SF-539 CNS): 166 nM; GI50 (SK-MEL-2 melanoma): 192 nM; TGI (SK-MEL-2 melanoma): 1730 nM; GI50 (SK-MEL-28 melanoma): 4100 nM; TGI (SK-MEL-28 melanoma): 18900 nM; GI50 (SK-MEL-5 melanoma): 419 nM; TGI (SK-MEL-5 melanoma): 17500 nM; GI50 (SK-OV-3 ovarian): 275 nM; TGI (SK-OV-3 ovarian): 13900 nM; GI50 (SN12C renal): 235 nM; TGI (SN12C renal): 11400 nM; GI50 (SNB-19 CNS): 693 nM; TGI (SNB-19 CNS): 13600 nM; GI50 (SNB-75 CNS): 611 nM; TGI (SNB-75 CNS): 11300 nM; GI50 (SR leukemia): 42.5 nM; TGI (SR leukemia): 1610 nM; GI50 (SW-620 colon): 1200 nM; TGI (SW-620 colon): 11800 nM; GI50 (T-47D breast): 887 nM; TGI (T-47D breast): 15500 nM; GI50 (TK-10 renal): 178 nM; TGI (TK-10 renal): 17400 nM; GI50 (U251 CNS): 787 nM; TGI (U251 CNS): 11200 nM; GI50 (UACC-257 melanoma): 1270 nM; TGI (UACC-257 melanoma): 9280 nM; GI50 (UACC-62 melanoma): 901 nM; TGI (UACC-62 melanoma): 22000 nM; GI50 (UO-31 renal): 70.8 nM; TGI (UO-31 renal): 11500 nM
